Measured values as given in article PMC8699473, “An Easily Expandable Multi-Drug LC-MS Assay for the Simultaneous Quantification of 57 Oral Antitumor Drugs in Human Plasma” (Cancers, 2021).
Where “and” joins values, the source holds several entries; their conditions need not be identical. Equal values may be shown once.

Columns and labels:
[1] = Short-term stability in spiked pooled human plasma (bench-top, 4 °C, 56 °C)
[2] = Long-term stability in spiked pooled human plasma
[3] = Autosampler stability of ready for injection samples; assay type: physicochemical, human
[4] = Freeze-thaw stability in spiked pooled human plasma; assay type: physicochemical
[5] = Plasma concentrations in patients on oral antitumor therapy (LC-MS); assay type: in vivo, human
Description: The liquid chromatography-mass spectrometer system consisted of a Thermo Scientific Dionex UltiMate^TM 3000 with an integrated and temperature controlled autosampler (Thermo Fisher Scientific, Dreieich, Germany). An Acquity UPLC® BEH C18 column (2.1 × 100 mm, 1.7 µm; Waters, Milford, CT, USA) equipped with an Acquity UPLC® BEH C18 VanGuard^TM Pre-Column (2.1 × 5 mm, 1.7 µm; Waters, Milford, CT, USA) was used for chromatographic separation. The Q-Exactive^TM Focus mass spectrometer (MS) was hyphenated with a heated electrospray ionization (HESI) source (both from Thermo Fisher Scientific, Dreieich, Germany).
Chromatographic separation was achieved using a gradient elution with water containing 0.5% (v/v) FA (eluent A) and MeOH with 0.1% (v/v) FA (eluent B). The injection volume was 5 µL. The gradient program is shown in Supplement Table S2. The flow rate was 0.5 mL/min with a total run time of 15 min. The column heater was maintained at 50 °C and the autosampler temperature was 4 °C.
The following MS and HESI settings were maintained for all analyses: Sheath gas, auxiliary gas, and sweep gas flow rates were set to 60, 20, and 0, respectively. The spray voltage was 4000 V. Both capillary and auxiliary gas heater temperatures were set to 400 °C. High-purity nitrogen gas was used for the HESI source gases and for the bath gas of the C-trap. […] The HESI source was configured in positive mode for ionization.
The stock solutions were stored in glass vials at −80 °C. Aliquots of all stock solutions were combined in ACN (volumes of individual stock solution solvents are negligible) to obtain a standard solution of all analytes with an individual concentration of 200% of the respective trough level (cmin). Eight individual working standards were prepared by stepwise dilution of this standard solution with concentrations from 10 to 200% cmin (shown in Supplement Table S3). Furthermore, the four individual IS stock solutions were combined and diluted to 50 ng/mL with ACN. Calibration and validation standards were prepared by spiking 50 µL pooled human plasma with 10 µL of the respective working solution. Next, 250 µL IS solution (50 ng/mL in ACN) were added and vortexed vigorously. […] Then, 100 µL supernatant were transferred to 300 µL HPLC insert glass vials and diluted with 100 µL eluent (90% A/10% B). For blank samples, 50 µL pooled human plasma were combined with 10 µL ACN (instead of working solution) and prepared as described above. The calibration and validation standards were freshly prepared before every run. Patient plasma samples were prepared as calibration and validation standards (no additional processing step necessary), except for adding 10 µL ACN instead of 10 µL working standard. Before sample preparation, the frozen plasma samples were thawed in absence of light at 4 °C.
Blood samples were collected over the entire dosing interval from patients treated with an oral anticancer drug as listed in Supplement Table S4. […] A maximum of two samples at two different time points throughout the entire dosing interval were collected per patient. Treatment duration before collection was at least five half-lives (depending on the specific oral anticancer drug). The samples were collected in K3-EDTA tubes.
A total of 71 blood samples from 39 patients treated with 14 different oral anticancer drugs were collected (see Supplement Table S4 for details). All patients were recruited from independent outpatient clinics associated with the Comprehensive Cancer Center of the University Hospital Erlangen (CCC Erlangen-EMN). Of 71 blood samples, 41 were taken ±4 h of trough level (cmin).

[6] = parameters: method as in supplement references [1-55] as printed per drug; details: minimum steady-state blood plasma concentration after multiple dose administration; ref supplement references [1-55] per drug; cited from earlier work
[7] = patient plasma, all samples, r.c. = respective cmin

## Cc1ccc(Nc2nccc(N(C)c3ccc4c(C)n(C)nc4c3)n2)cc1S(N)(=O)=O [Pazopanib]
[1]; validation standard 2xLLOV
  Short-time stability (24h, 4°C, without daylight) Accuracy [%]: 101.2%
  Short-time stability (24h, RT, with daylight) Accuracy [%]: 103.3%
  Short-time stability (24h, RT, without daylight) Accuracy [%]: 104.3%
[1]; validation standard LLOV
  Short-time stability (24h, 4°C, without daylight) Accuracy [%]: 104.1%
  Short-time stability (24h, RT, with daylight) Accuracy [%]: 100.2%
  Short-time stability (24h, RT, without daylight) Accuracy [%]: 105.8%
[1]; validation standard MOV
  Short-time stability (24h, 4°C, without daylight) Accuracy [%]: 97.8%
  Short-time stability (24h, RT, with daylight) Accuracy [%]: 99.1%
  Short-time stability (24h, RT, without daylight) Accuracy [%]: 101.2%
[1]; validation standard ULOV
  Short-time stability (24h, 4°C, without daylight) Accuracy [%]: 97.1%
  Short-time stability (24h, RT, with daylight) Accuracy [%]: 102.6%
  Short-time stability (24h, RT, without daylight) Accuracy [%]: 99.1%
[2]; validation standard 2xLLOV
  Long-term stability, 1 month, -20°C Accuracy [%]: 99.1%
  Long-term stability, 1 month, -80°C Accuracy [%]: 95.8%
  Long-term stability, 2 month, -20°C Accuracy [%]: 100.4%
  Long-term stability, 2 month, -80°C Accuracy [%]: 103.8%
  Long-term stability, 3 month, -20°C Accuracy [%]: 106.9%
  Long-term stability, 3 month, -80°C Accuracy [%]: 104.8%
  Long-term stability, 6 weeks, 4°C, without daylight Accuracy [%]: 96.5%
[2]; validation standard LLOV
  Long-term stability, 1 month, -20°C Accuracy [%]: 102.3%
  Long-term stability, 1 month, -80°C Accuracy [%]: 97.4%
  Long-term stability, 2 month, -20°C Accuracy [%]: 106.7%
  Long-term stability, 2 month, -80°C Accuracy [%]: 108.3%
  Long-term stability, 3 month, -20°C Accuracy [%]: 103.9%
  Long-term stability, 3 month, -80°C Accuracy [%]: 103.6%
  Long-term stability, 6 weeks, 4°C, without daylight Accuracy [%]: 99.0%
[2]; validation standard MOV
  Long-term stability, 1 month, -20°C Accuracy [%]: 96.3%
  Long-term stability, 1 month, -80°C Accuracy [%]: 95.8%
  Long-term stability, 2 month, -20°C Accuracy [%]: 98.8%
  Long-term stability, 2 month, -80°C Accuracy [%]: 98.1%
  Long-term stability, 3 month, -20°C Accuracy [%]: 103.3%
  Long-term stability, 3 month, -80°C Accuracy [%]: 103.3%
  Long-term stability, 6 weeks, 4°C, without daylight Accuracy [%]: 109.7%
[2]; validation standard ULOV
  Long-term stability, 1 month, -20°C Accuracy [%]: 97.3%
  Long-term stability, 1 month, -80°C Accuracy [%]: 93.0%
  Long-term stability, 2 month, -20°C Accuracy [%]: 98.8%
  Long-term stability, 2 month, -80°C Accuracy [%]: 98.3%
  Long-term stability, 3 month, -20°C Accuracy [%]: 98.1%
  Long-term stability, 3 month, -80°C Accuracy [%]: 100.0%
  Long-term stability, 6 weeks, 4°C, without daylight Accuracy [%]: 98.9%
[3]; validation standard 2xLLOV
  Autosampler (24h, 4°C) Accuracy [%]: 103.7%
  Autosampler (72h, 4°C) Accuracy [%]: 99.4%
[3]; validation standard LLOV
  Autosampler (24h, 4°C) Accuracy [%]: 101.3%
  Autosampler (72h, 4°C) Accuracy [%]: 99.0%
[3]; validation standard MOV
  Autosampler (24h, 4°C) Accuracy [%]: 101.7%
  Autosampler (72h, 4°C) Accuracy [%]: 97.9%
[3]; validation standard ULOV
  Autosampler (24h, 4°C) Accuracy [%]: 99.8%
  Autosampler (72h, 4°C) Accuracy [%]: 99.0%
[4]; validation standard 2xLLOV
  Freeze-Thaw Accuracy [%]: 103.5%
[4]; validation standard LLOV
  Freeze-Thaw Accuracy [%]: 102.7%
[4]; validation standard MOV
  Freeze-Thaw Accuracy [%]: 103.9%
[4]; validation standard ULOV
  Freeze-Thaw Accuracy [%]: 100.5%
[5]; 200 mg/day, 24 h, ±4 h of trough level: yes
  Measured plasma concentration: 24300.0 ng/mL and 21520.0 ng/mL
[5]; [7]
  Median Concentration of All Samples [% of r.c.]: 81.5 % of r.c.
  Min–Max Concentration [% of r.c.]: 76.6–86.5 % of r.c.
[6]
  cmin: 24000 ng/mL
